Measured values taken from publication PMC12543283, “TastepepAI: An artificial intelligence platform for taste peptide de novo design” (PLOS Computational Biology, 2025).
Where two headings read alike, the source gives them in different places. Ends that are not written are not given here.

Legend:
[1] = test system: human pancreatic ductal epithelial cells (HPNE); experiment: Cell viability assessment (CCK-8), HPNE; conditions: CCK-8, mean of Data1-3 (n = 3)
[2] = test system: human embryonic kidney cells (HEK293T); experiment: Cell viability assessment (CCK-8), HEK293T; conditions: CCK-8, mean of Data1-3 (n = 3)
[3] = Electronic tongue analysis (Taste-Sensing System SA 402B); design: unit not given here; conditions: reference solution 30 mM KCl + 0.3 mM tartaric acid as baseline, first measurement excluded; for Umami: sensor AAE; for Umami / Bitter / Sweet: detection threshold 0, room temperature; for Umami / Bitter / Sour / Salty: four replicates; for Sour: detection threshold -13, room temperature; for Salty: detection threshold -6, room temperature; for Sweet: measured five times
Method in brief: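 Samples were tested at 0.1 and 1.0 mg/mL on an SA 402B e-tongue fitted with sourness, saltiness, bitterness, sweetness and umami sensors, with 30 mM KCl/0.3 mM tartaric acid as reference and baseline. Thresholds were −13 for sour, −6 for salty and 0 for the rest. Runs at room temperature: four replicates, five for sweetness, first reading discarded.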

[4] = test system: red blood cells from 6-week-old BALB/c mice (mRBCs); experiment: Hemolysis assay; format: cell-based, mouse; conditions: mean of Data1-3; 100 μM peptide, 1.5 × 10^8 cells/mL mRBCs, 37°C, 60 min, absorbance 490 nm; PBS 0% and 1% Triton X-100 100% controls
Protocol: The hemolytic activity of synthetic peptides was evaluated using red blood cells from 6-week-old BALB/c mice (mRBCs). Freshly isolated mRBCs were washed three times with PBS buffer (8000 rpm, 2 min per wash) to prepare the mRBC suspension. Equal volumes (70 μL) of 200 μM peptide solutions and mRBC suspension were mixed to achieve final concentrations of 100 μM peptide and 1.5 × 10^8 cells/mL mRBCs in the reaction system. After incubation with shaking at 37°C for 60 min, samples were centrifuged at 10000 rpm for 5 min, and hemoglobin release was assessed by measuring the absorbance of the supernatant at 490 nm. PBS and 1% Triton X-100 treatments served as 0% and 100% hemolysis controls, respectively. A complete dataset of hemolytic activity measurements is documented in S4 Data.

[5] = test system: human bronchial epithelial cells (BEAS-2B); experiment: Cell viability assessment (CCK-8), BEAS-2B; conditions: BEAS-2B cells, CCK-8, mean of Data1-3 (n = 3)
[6] = test system: human umbilical vein endothelial cells (HUVEC); experiment: Cell viability assessment (CCK-8), HUVEC; conditions: CCK-8, mean of Data1-3 (n = 3)
[7] = test system: human umbilical vein endothelial cells (HUVEC)
[8] = test system: human bronchial epithelial cells (BEAS-2B)
[9] = test system: human pancreatic ductal epithelial cells (HPNE)
[10] = test system: human embryonic kidney cells (HEK293T)

Substance | Umami ([3]; peptide 0.1 mg/mL) | Umami ([3]; peptide 1 mg/mL) | Bitter ([3]; sensor C00, peptide 0.1 mg/mL) | Bitter ([3]; sensor C00, peptide 1 mg/mL) | Sour ([3]; sensor CA0, peptide 0.1 mg/mL) | Sour ([3]; sensor CA0, peptide 1 mg/mL) | Salty ([3]; sensor CT0, peptide 0.1 mg/mL) | Salty ([3]; sensor CT0, peptide 1 mg/mL) | Sweet ([3]; sensor GL1, peptide 0.1 mg/mL) | Sweet ([3]; sensor GL1, peptide 1 mg/mL) | Average cell viability, HUVEC [7] | Cell viability, HUVEC, Data1 [7] | Cell viability, HUVEC, Data2 [7] | Cell viability, HUVEC, Data3 [7] | Average cell viability, BEAS-2B [8] | Cell viability, BEAS-2B, Data1 [8] | Cell viability, BEAS-2B, Data2 [8] | Cell viability, BEAS-2B, Data3 [8] | Average cell viability, HPNE [9] | Cell viability, HPNE, Data1 [9] | other results
EPDDPDD [TaPep27] | 0.54 | -6.01 | 7.42 | 3.79 | -0.70 | 14.83 | -22.39 | 8.93 | 3.39 | -6.25 | – | – | – | – | – | – | – | – | – | – | Average cell viability, HPNE [1]: 91.58; Average cell viability, HEK293T [2]: 98.49; Average hemolysis [4]: 1.02%; Average cell viability, BEAS-2B [5]: 105.85; Average cell viability, HUVEC [6]: 94.52
VARLEA [TaPep9] | 2.67 | -2.73 | 7.95 | 2.75 | -6.31 | 8.17 | -18.92 | 12.49 | 8.92 | -4.48 | 96.43 | 97.15 | 102.50 | 89.65 | 112.30 | 110.77 | 115.45 | 110.67 | 104.39 | 117.30 | Cell viability, HPNE, Data2 [9]: 93.74; Cell viability, HPNE, Data3 [9]: 102.13; Average cell viability, HEK293T [10]: 105.62; Cell viability, HEK293T, Data1 [10]: 103.06; Cell viability, HEK293T, Data2 [10]: 112.15; Cell viability, HEK293T, Data3 [10]: 101.64
VEKVE [TaPep67] | 1.99 | -4.10 | 7.39 | 4.01 | -4.19 | 10.40 | -19.59 | 9.82 | 6.41 | -3.54 | 100.75 | 112.48 | 97.95 | 91.80 | 110.54 | 94.32 | 118.94 | 118.34 | 96.14 | 105.92 | Cell viability, HPNE, Data2 [9]: 99.23; Cell viability, HPNE, Data3 [9]: 83.26; Average cell viability, HEK293T [10]: 100.22; Cell viability, HEK293T, Data1 [10]: 99.37; Cell viability, HEK293T, Data2 [10]: 105.99; Cell viability, HEK293T, Data3 [10]: 95.30
VPDELN [TaPep23] | 1.53 | -4.39 | 7.18 | 3.47 | -3.15 | 11.00 | -22.67 | 6.69 | 5.26 | -4.58 | 97.76 | 98.19 | 95.72 | 99.39 | 102.53 | 109.87 | 92.32 | 105.38 | 99.63 | 105.82 | Cell viability, HPNE, Data2 [9]: 109.52; Cell viability, HPNE, Data3 [9]: 83.56; Average cell viability, HEK293T [10]: 90.54; Cell viability, HEK293T, Data1 [10]: 91.61; Cell viability, HEK293T, Data2 [10]: 84.89; Cell viability, HEK293T, Data3 [10]: 95.11
